Reference: patent US20050112573A1, “Method of detecting toxic substance” (priority 2001, published 2005)

System: yeast genes (level of expressed mRNA)
Assay: DNA chip analysis of expressed mRNA of yeast genes after 2 h culture with a toxic chemical substance
Format: cell-based, Saccharomyces cerevisiae S288C
Settings: for The level of expressed mRNA in the presence of chemical substance/ (ratio to absence of chemical substance): stress protein genes, DNA chip
In short: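 S. cerevisiae S288C grown at 25° C in YPD; toxicant added at log phase at growth-inhibitory, non-lethal levels for 2 h, untreated cells as control. Poly(A) mRNA reverse-transcribed with Cy3/Cy5-dUTP, hybridized to whole-genome chip at 65° C >12 h; value is fluorescence ratio versus untreated.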

## C[S+](C)[O-] [(15), dimethylsulfoxide]
Yeast gene YJL073W
  The level of expressed mRNA in the presence of chemical substance/The level of expressed mRNA in the absence of chemical substance: 2.6
Yeast gene YJL089W
  The level of expressed mRNA in the presence of chemical substance/The level of expressed mRNA in the absence of chemical substance: 6.4
Yeast gene YJL096W, mitochondria-located protein genes, 2 h culture with chemical
  The level of expressed mRNA in the presence of chemical substance/ (ratio to absence), gene YJL096W: 1.0
Yeast gene YJL116C
  The level of expressed mRNA in the presence of chemical substance/The level of expressed mRNA in the absence of chemical substance: 1.0
Yeast gene YJL158C
  The level of expressed mRNA in the presence of chemical substance/ (ratio to absence of chemical substance): 1.7
Yeast gene YJL167W, ratio of DNA chip fluorescence intensity to that without chemical substance
  The level of expressed mRNA in the presence of chemical substance/ (in its absence), gene YJL167W: 1.6
Yeast gene YJL180C, mitochondria-located protein genes, 2 h culture with chemical
  The level of expressed mRNA in the presence of chemical substance/ (ratio to absence), gene YJL180C: 0.6
Yeast gene YJL216C, ratio of DNA chip fluorescence intensity to that without chemical substance
  The level of expressed mRNA in the presence of chemical substance/ (in its absence), gene YJL216C: 1.2
Yeast gene YJR004C
  The level of expressed mRNA in the presence of chemical substance/The level of expressed mRNA in the absence of chemical substance: 3.2
Yeast gene YJR086W
  The level of expressed mRNA in the presence of chemical substance/The level of expressed mRNA in the absence of chemical substance: 2.0
Yeast gene YJR090C
  The level of expressed mRNA in the presence of chemical substance/ (ratio to absence of chemical substance): 1.6
Yeast gene YKL008C
  The level of expressed mRNA in the presence of chemical substance/The level of expressed mRNA in the absence of chemical substance: 1.3
Yeast gene YKL013C
  The level of expressed mRNA in the presence of chemical substance/The level of expressed mRNA in the absence of chemical substance: 1.2
Yeast gene YKL039W
  The level of expressed mRNA in the presence of chemical substance/The level of expressed mRNA in the absence of chemical substance: 3.1
Yeast gene YKL041W
  The level of expressed mRNA in the presence of chemical substance/The level of expressed mRNA in the absence of chemical substance: 1.0
Yeast gene YKL096W
  The level of expressed mRNA in the presence of chemical substance/The level of expressed mRNA in the absence of chemical substance: 2.3
Yeast gene YKL139W
  The level of expressed mRNA in the presence of chemical substance/The level of expressed mRNA in the absence of chemical substance: 1.0
Yeast gene YKL164C
  The level of expressed mRNA in the presence of chemical substance/ (ratio to absence of chemical substance): 1.2
Yeast gene YKL165C
  The level of expressed mRNA in the presence of chemical substance/The level of expressed mRNA in the absence of chemical substance: 2.1
Yeast gene YKL193C
  The level of expressed mRNA in the presence of chemical substance/The level of expressed mRNA in the absence of chemical substance: 1.2
Yeast gene YKR009C, ratio of DNA chip fluorescence intensity to that without chemical substance
  The level of expressed mRNA in the presence of chemical substance/ (in its absence), gene YKR009C: 1.0
Yeast gene YKR014C
  The level of expressed mRNA in the presence of chemical substance/The level of expressed mRNA in the absence of chemical substance: 1.4
Yeast gene YKR034W, ratio of DNA chip fluorescence intensity to that without chemical substance
  The level of expressed mRNA in the presence of chemical substance/ (in its absence), gene YKR034W: 1.7
Yeast gene YKR053C
  The level of expressed mRNA in the presence of chemical substance/ (ratio to absence of chemical substance): 0.3
Yeast gene YKR058W, energy system protein genes, 2 h culture with the chemical, ratio to control without chemical
  The level of expressed mRNA in the presence of chemical substance/ in its absence, gene YKR058W: 0.5
Yeast gene YLR006C, ratio of DNA chip fluorescence intensity to that without chemical substance
  The level of expressed mRNA in the presence of chemical substance/ (in its absence), gene YLR006C: 0.9
Yeast gene YLR006C
  The level of expressed mRNA in the presence of chemical substance/ (ratio to absence of chemical substance): 0.9
Yeast gene YLR093C
  The level of expressed mRNA in the presence of chemical substance/The level of expressed mRNA in the absence of chemical substance: 0.9
Yeast gene YLR120C
  The level of expressed mRNA in the presence of chemical substance/The level of expressed mRNA in the absence of chemical substance: 2.7
Yeast gene YLR136C
  The level of expressed mRNA in the presence of chemical substance/The level of expressed mRNA in the absence of chemical substance: 2.1
Yeast gene YLR178C
  The level of expressed mRNA in the presence of chemical substance/The level of expressed mRNA in the absence of chemical substance: 2.3
Yeast gene YLR250W
  The level of expressed mRNA in the presence of chemical substance/The level of expressed mRNA in the absence of chemical substance: 2.6
Yeast gene YLR295C, energy system protein genes, 2 h culture with the chemical, ratio to control without chemical
  The level of expressed mRNA in the presence of chemical substance/ in its absence, gene YLR295C: 0.5
Yeast gene YLR295C, mitochondria-located protein genes, 2 h culture with chemical
  The level of expressed mRNA in the presence of chemical substance/ (ratio to absence), gene YLR295C: 0.5
Yeast gene YLR327C
  The level of expressed mRNA in the presence of chemical substance/The level of expressed mRNA in the absence of chemical substance: 0.8
Yeast gene YLR351C, ratio of DNA chip fluorescence intensity to that without chemical substance
  The level of expressed mRNA in the presence of chemical substance/ (in its absence), gene YLR351C: 1.2
Yeast gene YLR356W
  The level of expressed mRNA in the presence of chemical substance/The level of expressed mRNA in the absence of chemical substance: 2.8
Yeast gene YLR362W
  The level of expressed mRNA in the presence of chemical substance/The level of expressed mRNA in the absence of chemical substance: 1.3
Yeast gene YLR375W, ratio of DNA chip fluorescence intensity to that without chemical substance
  The level of expressed mRNA in the presence of chemical substance/ (in its absence), gene YLR375W: 1.3
Yeast gene YLR391W
  The level of expressed mRNA in the presence of chemical substance/The level of expressed mRNA in the absence of chemical substance: 3.9
Yeast gene YLR429W
  The level of expressed mRNA in the presence of chemical substance/The level of expressed mRNA in the absence of chemical substance: 1.5
Yeast gene YML129C, energy system protein genes, 2 h culture with the chemical, ratio to control without chemical
  The level of expressed mRNA in the presence of chemical substance/ in its absence, gene YML129C: 1.1
Yeast gene YML129C, mitochondria-located protein genes, 2 h culture with chemical
  The level of expressed mRNA in the presence of chemical substance/ (ratio to absence), gene YML129C: 1.1
Yeast gene YMR004W
  The level of expressed mRNA in the presence of chemical substance/The level of expressed mRNA in the absence of chemical substance: 1.3
Yeast gene YMR023C, mitochondria-located protein genes, 2 h culture with chemical
  The level of expressed mRNA in the presence of chemical substance/ (ratio to absence), gene YMR023C: 0.7
Yeast gene YMR094W
  The level of expressed mRNA in the presence of chemical substance/The level of expressed mRNA in the absence of chemical substance: 6.6
Yeast gene YMR104C
  The level of expressed mRNA in the presence of chemical substance/The level of expressed mRNA in the absence of chemical substance: 2.5
Yeast gene YMR186W
  The level of expressed mRNA in the presence of chemical substance/ (ratio to absence of chemical substance): 1.3
Yeast gene YMR219W
  The level of expressed mRNA in the presence of chemical substance/The level of expressed mRNA in the absence of chemical substance: 1.7
Yeast gene YMR226C
  The level of expressed mRNA in the presence of chemical substance/The level of expressed mRNA in the absence of chemical substance: 2.0
Yeast gene YMR267W, energy system protein genes, 2 h culture with the chemical, ratio to control without chemical
  The level of expressed mRNA in the presence of chemical substance/ in its absence, gene YMR267W: 0.9
Yeast gene YMR267W, mitochondria-located protein genes, 2 h culture with chemical
  The level of expressed mRNA in the presence of chemical substance/ (ratio to absence), gene YMR267W: 0.9
Yeast gene YMR267W, ratio of DNA chip fluorescence intensity to that without chemical substance
  The level of expressed mRNA in the presence of chemical substance/ in its absence, gene YMR267W: 0.9
Yeast gene YMR275C
  The level of expressed mRNA in the presence of chemical substance/The level of expressed mRNA in the absence of chemical substance: 1.7
Yeast gene YMR276W
  The level of expressed mRNA in the presence of chemical substance/The level of expressed mRNA in the absence of chemical substance: 3.3
Yeast gene YMR278W, ratio of DNA chip fluorescence intensity to that without chemical substance
  The level of expressed mRNA in the presence of chemical substance/ (in its absence), gene YMR278W: 1.8
Yeast gene YMR293C, ratio of DNA chip fluorescence intensity to that without chemical substance
  The level of expressed mRNA in the presence of chemical substance/ (in its absence), gene YMR293C: 0.7
